A short description of one data set: in vivo. The settings on record: mouse, ip, intraperitoneal, hydrochloride, male ddy mice.
In data set [1] the test system is Carrageenin edema in rat's paw. Description: Carrageenin Edema Test in Rat's Paw (anti-inflammatory activity, Table 1). In kind it is in vivo. The conditions noted are these: 100 mg/kg oral; for inhibition in vivo at 100 mg/kg: hydrochloride, rat; for anti-inflammatory activity in comparison with compounds of the invention: Carrageenin edema. How it is done: An anti-inflammatory activity was measured by orally administering 100 mg/kg of a hydrochloride of the indazole derivative of this invention as set forth in Table 1 to an animal in accordance with the standard method of Carrageenin Edema Test in Rat's Paw described in C. A. Winter et al., Proc. Soc. Exp. Biol. Med., 111, 544 (1962).

Turning to `CCN(CC)CCCn1nc(N)c2c(Cl)cccc21` [(1), 1-(3-Diethylaminopropyl)-3-amino-4-chloroindazole], the LD50 (in general, the dose expected to kill half of the subjects tested) in the data set “in vivo” was determined as 171 mg/kg. The inhibition in vivo (in general, the share of the control response that was lost under treatment) at 100 mg/kg in data set [1] was 58%.
Taken in the same sequence, the figures for `CCN(CC)CCCn1nc(N)c2cc(Cl)ccc21` [(2), 1-(3-Diethylaminopropyl)-3-amino-5-chloroindazole] were 192 mg/kg and 55%.
Compound `CCN(CC)CCCn1nc(N)c2ccc(Cl)cc21` [(3), 1-(3-Diethylaminopropyl)-3-amino-6-chloroindazole] had an LD50 in the data set “in vivo” of 241 mg/kg. For the same compound, the inhibition in vivo at 100 mg/kg in data set [1] stood at 54%.
`CCN(CC)CCCn1nc(N)c2cccc(Cl)c21` [(4), 1-(3-Diethylaminopropyl)-3-amino-7-chloroindazole] yielded an LD50 in the data set “in vivo” of 273 mg/kg. The compound also displayed an inhibition in vivo at 100 mg/kg in data set [1] of 59%.
For `CCN(CC)CCCn1nc(N)c2cc(N)ccc21` [(5), 1-(3-Diethylaminopropyl)-3,5-diaminoindazole] the same measures were 311 mg/kg and 59%.
The compound `CCN(CC)CCCn1nc(N)c2cc(OC)ccc21` [(6), 1-(3-Diethylaminopropyl)-3-amino-5-methoxyindazole] displayed a 50% lethal dose (LD50) in “in vivo” of 188 mg/kg. In addition, the inhibition in vivo at 100 mg/kg in data set [1] is 56%.
Regarding `CCN(CC)CCCn1nc(N)c2cc(C)ccc21` [(7), 1-(3-Diethylaminopropyl)-3-amino-5-methylindazole], in “in vivo”, the LD50 was 221 mg/kg. In addition, the inhibition in vivo at 100 mg/kg in data set [1] was 58%.
Taken in the same sequence, the figures for `CCCCN(CCCC)CCCn1nc(N)c2cc(Cl)ccc21` [(8), 1-(3-Di-n-butylaminopropyl)-3-amino-5-chloroindazole] were 231 mg/kg and 56%.
In turn, `CC(CCn1nc(N)c2cc(Cl)ccc21)N(C)C` (centres unmarked) [(9), 1-(3-Dimethylaminobutyl)-3-amino-5-chloroindazole] displayed an LD50 in “in vivo” of 113 mg/kg. The inhibition in vivo at 100 mg/kg in data set [1] is 37%.
Regarding `CCN(CC)C(CCn1nc(N)c2cc(Cl)ccc21)CC(C)C` (centres unmarked) [(10), 1-(3-Diethylamino-5-methylhexyl)-3-amino-5-chloroindazole], the LD50 in the data set “in vivo” is 239 mg/kg. Moreover, in data set [1], the inhibition in vivo at 100 mg/kg is 49%.
Turning to `Nc1nn(CCCN2CCCCC2)c2ccc(Cl)cc12` [(11), 1-(3-Piperidinopropyl)-3-amino-5-chloroindazole], the LD50 in “in vivo” was determined as 211 mg/kg. The compound further gave an inhibition in vivo at 100 mg/kg in data set [1] of 54%.
In turn, `Nc1nn(CCCCCCN2CCCCC2)c2ccc(Cl)cc12` [(12), 1-(6-Piperidinohexyl)-3-amino-5-chloroindazole] showed an LD50 in the data set “in vivo” of 337 mg/kg. Moreover, in data set [1], 100 mg/kg produced 28% inhibition in vivo.
Take `CC(CCn1nc(N)c2cc(Cl)ccc21)N1CCCCC1` (centres unmarked) [(13), 1-(3-Piperidinobutyl)-3-amino-5-chloroindazole]: the LD50 in “in vivo” was 310 mg/kg. 100 mg/kg produced 49% inhibition in vivo in data set [1].
Regarding `CC(C)CC(CCn1nc(N)c2cc(Cl)ccc21)N1CCCCC1` (centres unmarked) [(14), 1-(3-Piperidino-5-methylhexyl)-3-amino-5-chloroindazole], the LD50 in the data set “in vivo” is 301 mg/kg. In data set [1], this compound came in with an inhibition in vivo at 100 mg/kg of 34%.
`CC1CCCCN1CCCn1nc(N)c2cc(Cl)ccc21` (centres unmarked) [(15), 1-[3-(2-Methylpiperidino)propyl]-3-amino-5-chloroindazole] yielded an LD50 in the data set “in vivo” of 250 mg/kg. The compound further yielded an inhibition in vivo at 100 mg/kg in data set [1] of 50%.
As for `CC1CCCC(C)N1CCCn1nc(N)c2cc(Cl)ccc21` (centres unmarked) [(16), 1-[3-(2,6-Dimethylpiperidino)propyl]-3-amino-5-chloroindazole], the LD50 in “in vivo” amounted to 214 mg/kg. The inhibition in vivo at 100 mg/kg in data set [1] was 33%.
Regarding `Nc1nn(CCCN2CCC(O)CC2)c2ccc(Cl)cc12` [(17), 1-[3-(4-Hydroxypiperidino)propyl]-3-amino-5-chloroindazole], the LD50 in the data set “in vivo” is 251 mg/kg. The same compound returned an inhibition in vivo at 100 mg/kg in data set [1] of 37%.
`Nc1nn(CCCN2CCC(Cl)CC2)c2ccc(Cl)cc12` [(18), 1-[3-(4-Chloropiperidino)propyl]-3-amino-5-chloroindazole] came in with an LD50 in the data set “in vivo” of 278 mg/kg. For the same compound, 100 mg/kg produced 66% inhibition in vivo in data set [1].
Turning to `Nc1nn(CCCN2CCCCCC2)c2ccc(Cl)cc12` [(19), 1-(3-Homopiperidinopropyl)-3-amino-5-chloroindazole], the LD50 in the data set “in vivo” came to 251 mg/kg. In data set [1], this compound yielded an inhibition in vivo at 100 mg/kg of 38%.
Consider `CN1CCN(CCCn2nc(N)c3cc(Cl)ccc32)CC1` [(20), 1-[3-(4-Methylpiperazino)propyl]-3-amino-5-chloroindazole], for which the LD50 in “in vivo” was determined as 278 mg/kg. Further, the inhibition in vivo at 100 mg/kg in data set [1] was determined as 26%.
In the data set “in vivo”, `Nc1nn(CCCN2CCCC2)c2ccc(Cl)cc12` [(21), 1-(3-Pyrrolidinopropyl)-3-amino-5-chloroindazole] showed an LD50 of 311 mg/kg. In data set [1], this compound showed an inhibition in vivo at 100 mg/kg of 39%.
In “in vivo”, `Nc1nn(CCCN2CCOCC2)c2ccc(Cl)cc12` [(22), 1-(3-Morpholinopropyl)-3-amino-5-chloroindazole] returned an LD50 of 388 mg/kg. For the same compound, in data set [1], 100 mg/kg produced 46% inhibition in vivo.
With `CCN(CC)CCCn1nc(N)c2c(O)cccc21` [(23), 1-(3-Diethylaminopropyl)-3-amino-4-hydroxyindazole], the LD50 in “in vivo” was found to be 179 mg/kg. This compound had an inhibition in vivo at 100 mg/kg in data set [1] of 56%.
The compound `CCN(CC)CCCn1nc(N)c2cc(O)ccc21` [(24), 1-(3-Diethylaminopropyl)-3-amino-5-hydroxyindazole] showed an LD50 in the data set “in vivo” of 161 mg/kg. Moreover, testing at 100 mg/kg in data set [1] gave an inhibition in vivo of 53%.
As to `CCN(CC)CCCn1nc(N)c2ccc(O)cc21` [(25), 1-(3-Diethylaminopropyl)-3-amino-6-hydroxyindazole], the LD50 in “in vivo” is 301 mg/kg. For the same compound, at 100 mg/kg the inhibition in vivo in data set [1] was 52%.
In turn, `CCN(CC)CCCn1nc(N)c2cccc(O)c21` [(26), 1-(3-Diethylaminopropyl)-3-amino-7-hydroxyindazole] yielded an LD50 in the data set “in vivo” of 297 mg/kg. The same compound came in with an inhibition in vivo at 100 mg/kg in data set [1] of 57%.
Turning to `CCN(CC)CCCn1nc(N)c2cc(I)ccc21` [(27), 1-(3-Diethylaminopropyl)-3-amino-5-iodoindazole], in “in vivo”, the LD50 came out at 281 mg/kg. Further, the inhibition in vivo at 100 mg/kg in data set [1] is 57%.
Consider `CCN(CC)CCCn1nc(N)c2cccc(I)c21` [(28), 1-(3-Diethylaminopropyl)-3-amino-7-iodoindazole], for which the LD50 in the data set “in vivo” amounted to 103 mg/kg. This compound also had an inhibition in vivo at 100 mg/kg in data set [1] of 54%.
`CCN(CC)CCCn1nc(N)c2cc(N)cc(N)c21` [(29), 1-(3-Diethylaminopropyl)-3,5,7-triaminoindazole] displayed an LD50 in the data set “in vivo” of 104 mg/kg. The inhibition in vivo at 100 mg/kg in data set [1] is 56%.
In the case of `CCCCN(CCCC)CCCn1nc(N)c2cc(O)ccc21` [(30), 1-(3-Di-n-butylaminopropyl)-3-amino-5-hydroxyindazole], the LD50 in “in vivo” stood at 255 mg/kg. In data set [1], this compound showed an inhibition in vivo at 100 mg/kg of 54%.
Consider `CC(CCn1nc(N)c2cc(O)ccc21)N(C)C` (centres unmarked) [(31), 1-(3-Dimethylaminobutyl)-3-amino-5-hydroxyindazole], for which the LD50 in the data set “in vivo” was 241 mg/kg. Besides, in data set [1], the inhibition in vivo at 100 mg/kg turned out to be 35%.
`CCN(CC)C(CCn1nc(N)c2cc(O)ccc21)CC(C)C` (centres unmarked) [(32), 1-(3-Diethylamino-5-methylhexyl)-3-amino-5-hydroxyindazole] had an LD50 in the data set “in vivo” of 251 mg/kg. For the same compound, in data set [1], the inhibition in vivo at 100 mg/kg is 47%.
In the data set “in vivo”, `Nc1nn(CCCN2CCCCC2)c2ccc(O)cc12` [(33), 1-(3-Piperidinopropyl)-3-amino-5-hydroxyindazole] came in with an LD50 of 227 mg/kg. 100 mg/kg produced 52% inhibition in vivo in data set [1].
With `Nc1nn(CCCCCCN2CCCCC2)c2ccc(O)cc12` [(34), 1-(6-Piperidinohexyl)-3-amino-5-hydroxyindazole], the LD50 in the data set “in vivo” was determined as 231 mg/kg. The compound also returned an inhibition in vivo at 100 mg/kg in data set [1] of 26%.
Taken in the same sequence, the figures for `CC(CCn1nc(N)c2cc(O)ccc21)N1CCCCC1` (centres unmarked) [(35), 1-(3-Piperidinobutyl)-3-amino-5-hydroxyindazole] were 246 mg/kg and 47%.
For `CC(C)CC(CCn1nc(N)c2cc(O)ccc21)N1CCCCC1` (centres unmarked) [(36), 1-(3-Piperidino-5-methylhexyl)-3-amino-5-hydroxyindazole], the LD50 in “in vivo” worked out at 251 mg/kg. Further, in data set [1], 100 mg/kg produced 32% inhibition in vivo.
With `CC1CCCCN1CCCn1nc(N)c2cc(O)ccc21` (centres unmarked) [(37), 1-[3-(2-Methylpiperidino)propyl]-3-amino-5-hydroxyindazole], in “in vivo”, the LD50 stood at 267 mg/kg. Also, the inhibition in vivo at 100 mg/kg in data set [1] turned out to be 48%.
`CC1CCCC(C)N1CCCn1nc(N)c2cc(O)ccc21` (centres unmarked) [(38), 1-[3-(2,6-Dimethylpiperidino)propyl]-3-amino-5-hydroxyindazole] displayed an LD50 in the data set “in vivo” of 278 mg/kg. For the same compound, in data set [1], the inhibition in vivo at 100 mg/kg stood at 31%.
`Nc1nn(CCCN2CCC(O)CC2)c2ccc(O)cc12` [(39), 1-[3-(4-Hydroxypiperidino)propyl]-3-amino-5-hydroxyindazole] yielded an LD50 in “in vivo” of 311 mg/kg. The compound further yielded an inhibition in vivo at 100 mg/kg in data set [1] of 35%.
Taken in the same sequence, the figures for `Nc1nn(CCCN2CCC(Cl)CC2)c2ccc(O)cc12` [(40), 1-[3-(4-Chloropiperidino)propyl]-3-amino-5-hydroxyindazole] were 335 mg/kg and 64%.
As to `CCCn1nc(N)c2ccccc21` [Compound C-1, 1-propyl-3-aminoindazole, reference compound], in data set [1], testing at 100 mg/kg gave an inhibition in vivo of 7% and the “anti-inflammatory activity in comparison with compounds of the invention” value (from here on “anti-inflammatory activity in comparison”) is reported as “little anti-inflammatory activity”.
As for `Nc1nn(CCc2ccccc2)c2ccccc12` [Compound C-2, 1-(2-phenylethyl)-3-aminoindazole, reference compound], in data set [1], the inhibition in vivo at 100 mg/kg was determined as 7% and the “anti-inflammatory activity in comparison” value is on record as “little anti-inflammatory activity”.
Consider `Nc1n[nH]c2c(N)cccc12` [Compound C-3, 3,7-diaminoindazole, reference compound], for which, in data set [1], testing at 100 mg/kg gave an inhibition in vivo of 6% and the “anti-inflammatory activity in comparison” value is listed as “little anti-inflammatory activity”.

For the origin of these results see patent publication US4751302A, “Indazole derivatives” (priority 1982, dated 1988).
